Test results published in patent US20120115724A1, “METHOD OF CONTROLLING UNDESIRED VEGETATION” (SYNGENTA CROP PROTECTION LLC, priority 2009, published 2012).

Experiments:
Format in all cases: in vivo
[1] = test system: Alopecurus myosuroides (ALOMY); assay: Pre-emergence biological efficacy (Example 13); settings: Alopecurus myosuroides, 312 h; pre-emergence, 1,000 g/ha, after 13 days; read-out: Percentage damage ALOMY
Protocol: (§1) Seeds of Alopecurus myosuroides (ALOMY), Setaria faberi (SETFA), Echinochloa crus-galli (ECHCG), Solanum nigrum (SOLNI), Amaranthus retroflexus (AMARE) and Ipomea hederaceae (IPOHE) were sown in standard soil in pots. After cultivation for one day under controlled conditions in a glasshouse (at 24/16° C., day/night; 14 hours light; 65% humidity), the plants were sprayed with an aqueous spray solution derived from the formulation of the technical active ingredient in acetone/water (50:50) solution containing 0.5% Tween 20 (polyoxyethylene sorbitan monolaurate, CAS RN 9005-64-5) to give a final dose of 250 or 1000g/ha of test compound. The test plants were then grown under controlled conditions in the glasshouse (at 24/16° C., day/night; 14 hours light; 65% humidity) and watered twice daily. After 13 days the test was evaluated (100 =total damage to plant; 0 =no damage to plant).

Solanum nigrum (SOLNI) [2] = assay: Pre-emergence biological efficacy (Example 13); settings: Solanum nigrum, 312 h; pre-emergence, 1,000 g/ha, after 13 days; read-out: Percentage damage SOLNI
Protocol: as §1

[3] = test system: Echinochloa crus-galli (ECHCG); assay: Pre-emergence biological efficacy (Example 13); settings: Echinochloa crus-galli, 312 h; pre-emergence, 1,000 g/ha, after 13 days; read-out: Percentage damage ECHCG
Protocol: as §1

[4] = test system: Ipomea hederaceae (IPOHE); assay: Pre-emergence biological efficacy (Example 13); settings: Ipomoea hederacea, 312 h; pre-emergence, 1,000 g/ha, after 13 days; read-out: Percentage damage IPOHE
Protocol: as §1

Setaria faberi (SETFA) [5] = assay: Pre-emergence biological efficacy (Example 13); settings: Setaria faberi, 312 h; pre-emergence, 1,000 g/ha, after 13 days; read-out: Percentage damage SETFA
Protocol: as §1

[6] = test system: Amaranthus retroflexus (AMARE); assay: Pre-emergence biological efficacy (Example 13); settings: Amaranthus retroflexus, 312 h; pre-emergence, 1,000 g/ha, after 13 days; read-out: Percentage damage AMARE
Protocol: as §1

VERPE Veronica persica = assay: Post-emergence crop and weed test (Example 15); settings: 360 h, after 15 days, read-out: Percentage damage VERPE
Protocol: (§2) Seeds of crop and representative weed species were sown in standard soil in pots. After cultivation for 14 days under controlled conditions in a glasshouse (at 22/16° C., day/night; 16 hours light; 65% humidity), the plants were sprayed. The spray solution was prepared by dissolving the technical active ingredient in acetone containing 10.56 wt % Emulsogen EL, 42.22 wt % N-methylpyrrolidone and 2.22 wt % DPG-monoethyl ether to give a 5% stock solution. This was then diluted with water containing 0.2% (v/v) of the adjuvant X-77 to give the desired treatment concentration.
(§3) The test plants were then grown on under controlled conditions in a glasshouse (at 22/16° C., day/night; 16 hours light; 65% humidity) and watered twice daily. After 15 days the test was evaluated (100 =total damage to plant; 0 =no damage to plant).

KCHSC Kochia scoparia = assay: Post-emergence crop and weed test (Example 15); settings: Bassia scoparia, 360 h, after 15 days, read-out: Percentage damage KCHSC
Protocol: as §2, §3

IPOHE Ipomoea hederacea = assay: Post-emergence crop and weed test (Example 15); settings: 360 h, after 15 days, read-out: Percentage damage IPOHE
Protocol: as §2, §3

CHEAL Chenopodium album = assay: Post-emergence crop and weed test (Example 15); settings: 360 h, after 15 days, read-out: Percentage damage CHEAL
Protocol: as §2, §3

SIDSP Sida spinosa = assay: Post-emergence crop and weed test (Example 15); settings: 360 h, after 15 days, read-out: Percentage damage SIDSP
Protocol: as §2, §3

[7] = test system: ABUTH Abutilon theophrasti; assay: Post-emergence crop and weed test (Example 15); settings: 360 h, after 15 days, read-out: Percentage damage ABUTH
Protocol: as §2, §3

[8] = test system: POLCO Polygonum convolvulus; assay: Post-emergence crop and weed test (Example 15); settings: Fallopia convolvulus, 360 h, after 15 days, read-out: Percentage damage POLCO
Protocol: as §2, §3

[9] = test system: EPHHL Euphorbia heterophylla; assay: Post-emergence crop and weed test (Example 15); settings: 360 h, after 15 days, read-out: Percentage damage EPHHL
Protocol: as §2, §3

[10] = test system: XANST Xanthium strumarium; assay: Post-emergence crop and weed test (Example 15); settings: 360 h, after 15 days, read-out: Percentage damage XANST
Protocol: as §2, §3

[11] = test system: AMARE Amaranthus retroflexus; assay: Post-emergence crop and weed test (Example 15); settings: 360 h, after 15 days, read-out: Percentage damage AMARE
Protocol: as §2, §3

SINAR Sinapis arvensis = assay: Post-emergence crop and weed test (Example 15); settings: Mutarda arvensis, 360 h, after 15 days, read-out: Percentage damage SINAR
Protocol: as §2, §3

GLXMA Soybean = assay: Post-emergence crop and weed test (Example 15); settings: Glycine max, 360 h, after 15 days, read-out: Percentage damage GLXMA
Protocol: as §2, §3

[12] = test system: Alopecurus myosuroides (ALOMY); assay: Post-emergence biological efficacy (Example 14); settings: Alopecurus myosuroides, 312 h; post-emergence, 1,000 g/ha, after 13 days; read-out: Percentage damage ALOMY
Protocol: as §1, with “for 8 days” for “for one day”, “or 1000 g/ha” for “or 1000g/ha”, “grown on” for “grown”, “in a” for “in the”, “evaluated (100=total” for “evaluated (100 =total”, “plant; 0=no” for “plant; 0 =no”

Solanum nigrum (SOLNI) [13] = assay: Post-emergence biological efficacy (Example 14); settings: Solanum nigrum, 312 h; post-emergence, 1,000 g/ha, after 13 days; read-out: Percentage damage SOLNI
Protocol: as §1, with “for 8 days” for “for one day”, “or 1000 g/ha” for “or 1000g/ha”, “grown on” for “grown”, “in a” for “in the”, “evaluated (100=total” for “evaluated (100 =total”, “plant; 0=no” for “plant; 0 =no”

[14] = test system: Echinochloa crus-galli (ECHCG); assay: Post-emergence biological efficacy (Example 14); settings: Echinochloa crus-galli, 312 h; post-emergence, 1,000 g/ha, after 13 days; read-out: Percentage damage ECHCG
Protocol: as §1, with “for 8 days” for “for one day”, “or 1000 g/ha” for “or 1000g/ha”, “grown on” for “grown”, “in a” for “in the”, “evaluated (100=total” for “evaluated (100 =total”, “plant; 0=no” for “plant; 0 =no”

[15] = test system: Ipomea hederaceae (IPOHE); assay: Post-emergence biological efficacy (Example 14); settings: Ipomoea hederacea, 312 h; post-emergence, 1,000 g/ha, after 13 days; read-out: Percentage damage IPOHE
Protocol: as §1, with “for 8 days” for “for one day”, “or 1000 g/ha” for “or 1000g/ha”, “grown on” for “grown”, “in a” for “in the”, “evaluated (100=total” for “evaluated (100 =total”, “plant; 0=no” for “plant; 0 =no”

Setaria faberi (SETFA) [16] = assay: Post-emergence biological efficacy (Example 14); settings: Setaria faberi, 312 h; post-emergence, 1,000 g/ha, after 13 days; read-out: Percentage damage SETFA
Protocol: as §1, with “for 8 days” for “for one day”, “or 1000 g/ha” for “or 1000g/ha”, “grown on” for “grown”, “in a” for “in the”, “evaluated (100=total” for “evaluated (100 =total”, “plant; 0=no” for “plant; 0 =no”

[17] = test system: Amaranthus retroflexus (AMARE); assay: Post-emergence biological efficacy (Example 14); settings: Amaranthus retroflexus, 312 h; post-emergence, 1,000 g/ha, after 13 days; read-out: Percentage damage AMARE
Protocol: as §1, with “for 8 days” for “for one day”, “or 1000 g/ha” for “or 1000g/ha”, “grown on” for “grown”, “in a” for “in the”, “evaluated (100=total” for “evaluated (100 =total”, “plant; 0=no” for “plant; 0 =no”

GALAP Galium aparine = assay: Post-emergence crop and weed test (Example 15); settings: 360 h, after 15 days, read-out: Percentage damage GALAP
Protocol: as §2, §3

SMILES: C=Cc1c(N)nc(-c2ccc(Cl)nc2)nc1C(=O)OC [Compound 8, 4-amino-2-(6-chloropyridin-3-yl)-5-ethenyl-6-methoxycarbonyl-pyrimidine]
- pest or weed control at 1000 g/ha [1]: 10%
- pest or weed control at 1000 g/ha (Solanum nigrum (SOLNI) [2]): 40%
- pest or weed control at 1000 g/ha [3]: 0%
- pest or weed control at 1000 g/ha [4]: 40%
- pest or weed control at 1000 g/ha (Setaria faberi (SETFA) [5]): 10%
- pest or weed control at 1000 g/ha [6]: 100%
- pest or weed control at 250 g/ha (VERPE Veronica persica; 250 g/ha): 80%
- pest or weed control at 250 g/ha (KCHSC Kochia scoparia; 250 g/ha): 60%
- pest or weed control at 250 g/ha (IPOHE Ipomoea hederacea; 250 g/ha): 50%
- pest or weed control at 250 g/ha (CHEAL Chenopodium album; 250 g/ha): 100%
- pest or weed control at 250 g/ha (SIDSP Sida spinosa; 250 g/ha): 20%
- pest or weed control at 250 g/ha ([7]; 250 g/ha): 60%
- pest or weed control at 250 g/ha ([8]; 250 g/ha): 60%
- pest or weed control at 250 g/ha ([9]; 250 g/ha): 40%
- pest or weed control at 250 g/ha ([10]; 250 g/ha): 80%
- pest or weed control at 250 g/ha ([11]; 250 g/ha): 100%
- pest or weed control at 250 g/ha (SINAR Sinapis arvensis; 250 g/ha): 70%
- plant injury at 250 g/ha (GLXMA Soybean; 250 g/ha): 10%
- pest or weed control at 1000 g/ha [12]: 0%
- pest or weed control at 1000 g/ha (Solanum nigrum (SOLNI) [13]): 90%
- pest or weed control at 1000 g/ha [14]: 0%
- pest or weed control at 1000 g/ha [15]: 50%
- pest or weed control at 1000 g/ha (Setaria faberi (SETFA) [16]): 0%
- pest or weed control at 1000 g/ha [17]: 100%

SMILES: COC(=O)c1nc(-c2ccc(Cl)c(N(C)C)c2F)nc(N)c1Cl [Ref. Ex. A, 4-Amino-5-chloro-2-(4-chloro-3-dimethylamino-2-fluorophenyl)-6-methoxycarbonyl-pyrimidine, reference compound]
- pest or weed control at 30 g/ha (VERPE Veronica persica; 30 g/ha): 70%
- pest or weed control at 30 g/ha (KCHSC Kochia scoparia; 30 g/ha): 80%
- pest or weed control at 30 g/ha (IPOHE Ipomoea hederacea; 30 g/ha): 70%
- pest or weed control at 30 g/ha (CHEAL Chenopodium album; 30 g/ha): 80%
- pest or weed control at 30 g/ha (SIDSP Sida spinosa; 30 g/ha): 80%
- pest or weed control at 30 g/ha ([7]; 30 g/ha): 90%
- pest or weed control at 30 g/ha ([8]; 30 g/ha): 90%
- pest or weed control at 30 g/ha ([9]; 30 g/ha): 80%
- pest or weed control at 30 g/ha ([10]; 30 g/ha): 90%
- pest or weed control at 30 g/ha (GALAP Galium aparine; 30 g/ha): 30%
- pest or weed control at 30 g/ha ([11]; 30 g/ha): 100%
- pest or weed control at 30 g/ha (SINAR Sinapis arvensis; 30 g/ha): 70%
- plant injury at 30 g/ha (GLXMA Soybean; 30 g/ha): 50%

SMILES: C/C=C/c1c(N)nc(C2CC2)nc1C(=O)OC [Ref. Ex. D, (E)-4-Amino-2-cyclopropyl-6-methoxycarbonyl-5-(prop-1-enyl)-pyrimidine, reference compound]
- pest or weed control at 125 g/ha (VERPE Veronica persica): 10%
- pest or weed control at 125 g/ha (KCHSC Kochia scoparia): 10%
- pest or weed control at 125 g/ha (IPOHE Ipomoea hederacea): 70%
- pest or weed control at 125 g/ha (CHEAL Chenopodium album): 60%
- pest or weed control at 125 g/ha (SIDSP Sida spinosa): 60%
- pest or weed control at 125 g/ha [7]: 50%
- pest or weed control at 125 g/ha [8]: 20%
- pest or weed control at 125 g/ha [9]: 80%
- pest or weed control at 125 g/ha [10]: 60%
- pest or weed control at 125 g/ha (GALAP Galium aparine): 80%
- pest or weed control at 125 g/ha [11]: 60%
- pest or weed control at 125 g/ha (SINAR Sinapis arvensis): 80%
- plant injury at 125 g/ha (GLXMA Soybean): 80%

SMILES: C=Cc1c(NCc2ccco2)nc(C2CC2)nc1C(=O)OC [Ref. Ex. F, 2-Cyclopropyl-5-ethenyl-4-(furan-2-ylmethylamino)-6-methoxycarbonyl-pyrimidine, reference compound]
- pest or weed control at 125 g/ha (VERPE Veronica persica): 0%
- pest or weed control at 125 g/ha (KCHSC Kochia scoparia): 30%
- pest or weed control at 125 g/ha (IPOHE Ipomoea hederacea): 70%
- pest or weed control at 125 g/ha (CHEAL Chenopodium album): 80%
- pest or weed control at 125 g/ha (SIDSP Sida spinosa): 60%
- pest or weed control at 125 g/ha [7]: 60%
- pest or weed control at 125 g/ha [8]: 60%
- pest or weed control at 125 g/ha [9]: 80%
- pest or weed control at 125 g/ha [10]: 60%
- pest or weed control at 125 g/ha (GALAP Galium aparine): 80%
- pest or weed control at 125 g/ha [11]: 40%
- pest or weed control at 125 g/ha (SINAR Sinapis arvensis): 80%
- plant injury at 125 g/ha (GLXMA Soybean): 80%
